Laboratory results reported in patent EP4733297A1, “INTEGRIN-INHIBITING SMALL MOLECULE COMPOUND” (Antibody Therapeutics, Inc., priority 2023, dated 2024).

Key:
[1] = system: carbon tetrachloride (CCl4) administration model; experiment: 8-week administration experiment in carbon tetrachloride (CCl4) administration model; format: in vivo, mice; conditions: oral, 8 weeks
Procedure: In this Example, over a period of 8 weeks, carbon tetrachloride (CCl4) for inducing fibrosis in the liver and compounds of the present invention (IBF-17, IBF-18, and IBF-20) were administered to mice, and the state of tissue fibrosis was observed.
To mice, carbon tetrachloride (diluted 4-fold with olive oil) was intraperitoneally administered at 1 mL/kg twice per week (for example, Monday and Friday, or Tuesday and Friday) for a total of 8 weeks. Throughout the entire test period, IBF-17, IBF-18, or IBF-20 was orally administered daily at 1 or 10 mg/kg twice per day (with an interval of 8 hours). After completion of the experiment, the liver was collected, and the amount of collagen was quantified by hydroxyproline measurement, and a specimen was stained with Sirius red to quantify the fibrotic area. In addition, expression of fibrosis markers, Col1a1 and Acta2 (α-SMA) genes, was analyzed by qPCR.

[2] = system: carbon tetrachloride (CCl4) administration model; experiment: 15-day administration experiment in carbon tetrachloride (CCl4) administration model (therapeutic); format: in vivo, mice; conditions: oral 5 mg/kg twice per day, 5 days per week, from week 4 of 6 weeks of CCl4
Procedure: In this Example, over a period of 6 weeks, carbon tetrachloride (CCl4) for inducing fibrosis in the liver was administered to mice, and the compound of the present invention (IBF-17) was administered for a total of 15 days over 3 weeks in the latter half of the test, and the state of tissue fibrosis was observed. While Example 4 is examination of a prophylactic effect in which the compound is administered from the start of the test, this Example is examination of a therapeutic effect in which the compound is administered after 3 weeks have passed since administration of carbon tetrachloride (in a state where liver fibrosis has occurred). Specifically, to mice, carbon tetrachloride (diluted 4-fold with olive oil) was intraperitoneally administered at 1 mL/kg twice per week (for example, Monday and Friday, or Tuesday and Friday) for a total of 6 weeks. From week 4 of the start of the test, IBF-17 was orally administered at 5 mg/kg twice per day (with an interval of 8 hours) for 5 days per week (Monday to Friday). After completion of the experiment, the liver was collected and the amount of collagen was quantified by hydroxyproline measurement.

[3] = system: TGFβ activation by integrin expressed in lung fibroblasts; experiment: Effect on TGFβ activation: luciferase reporter coculture of lung fibroblasts and CCL64 reporter cells; format: cell-based, male Wistar rats
Procedure: In this Example, lung fibroblasts were used as integrin-expressing cells, and the effect of IBF-17, which is a compound of the present invention, on TGFβ activity was examined. Fibroblasts isolated from lungs of male Wistar rats and cultured for 7 days were seeded at 2×10^3 cells per well and incubated for 5 days. After 5 days, IBF-17 or C8 (a known αvβ1 inhibitor) was added so as to give final concentrations of 2, 20, or 200 nM, and 2 hours thereafter, TGFβ-responsive luciferase-producing reporter cells CCL64 were seeded at 2×10^4 cells and cocultured for 18 hours. After that, the cells were lysed, luciferase assay reagent (Promega Corporation) was added, and luciferase activity was measured using a luminometer. The structure of C8, which is a known αvβ1 inhibitor, is as follows. [drawing 43]

NASH model = experiment: 8-week administration experiment in NASH model (CDAHFD diet); format: in vivo, mice; conditions: oral, 8 weeks
Procedure: In this Example, over a period of 8 weeks, while providing mice with CDAHFD (choline-deficient amino acid-restricted high-fat diet), compounds of the present invention (IBF-17, IBF-18, and IBF-20) were administered, and the state of tissue fibrosis was observed. More specifically, mice were fed with a special diet CDAHFD (Research Diets) for inducing a human NASH-like pathological condition for a total of 8 weeks, replacing with new diet twice per week (for example, Monday and Friday, or Tuesday and Friday). Throughout the entire test period, IBF-17, IBF-18, or IBF-20 was orally administered daily at 1, 3, or 10 mg/kg twice per day (with an interval of 8 hours). After completion of the experiment, the amount of collagen in the liver was quantified by hydroxyproline measurement, and, for IBF-17, in addition to staining specimens with Sirius red, which specifically stains collagen, to quantify the fibrotic area, expression of genes regarded as fibrosis markers (Acta2, Col1a1, and Timp-1) was analyzed by qPCR. In addition, body weight of each mouse during the feeding period (CDAHFD temporarily decreases at the initial stage of feeding) was measured, and the weight of the collected liver was measured.

[4] = system: bleomycin administration model; experiment: 10-day administration experiment in bleomycin administration model; format: in vivo, mice; conditions: oral 5 mg/kg twice per day, 5 days per week, from 1 week after bleomycin
Procedure: In this Example, to mice administered with bleomycin for inducing fibrosis in the lung, the compound of the present invention (IBF-17) was administered for a total of 10 days over a period of 2 weeks from 1 week after bleomycin administration, and the state of tissue fibrosis was observed.
Specifically, under deep anesthesia, the neck of mice was incised, bleomycin (diluted with physiological saline) was intratracheally administered once at 1.5 U/kg, and the neck was sutured. From 1 week after bleomycin administration (the time when fibrosis begins to occur), IBF-17 was orally administered at 5 mg/kg twice per day (with an interval of 8 hours) for 5 days per week (Monday to Friday). After completion of the experiment, the lung was collected and expression of fibrosis-related genes (Acta2, Col1a1, Col3a1, and Tnc) was analyzed by qPCR. Further, lung sections were prepared, collagen was stained by Masson-trichrome staining, and the fibrotic area was quantified.

[5] = system: carbon tetrachloride (CCl4) administration model; experiment: 3-day administration experiment in carbon tetrachloride (CCl4) administration model; format: in vivo, mice; conditions: liver, 72 hours after CCl4; subcutaneous 1 mg/kg twice per day
Procedure: In this Example, carbon tetrachloride (CCl4) for inducing fibrosis in the liver was administered once to mice, and thereafter, the compound of the present invention (IBF-17) was administered for 3 days, and then the liver was collected and observed. More specifically, carbon tetrachloride (diluted 4-fold with olive oil) was intraperitoneally administered once at 2 mL/kg to mice that had been fasted for half a day from the day before the test. IBF-17 was subcutaneously administered daily at 1 mg/kg twice per day (with an interval of 8 hours), including the day of carbon tetrachloride administration. At 72 hours after carbon tetrachloride administration, the mice were dissected and the liver was collected, and expression of fibrosis marker genes (Acta2, Col1a1, Col3a1, Tgfb1, Loxl1, and Ddr2) was analyzed by qPCR.

[6] = system: unilateral ureteral obstruction (UUO) model; experiment: 10-day administration experiment in unilateral ureteral obstruction (UUO) model; format: in vivo, mice; conditions: kidney, 10 days after ligation; subcutaneous 1 or 5 mg/kg twice per day for 9 days
Procedure: In this Example, over a period of 10 days, the compound of the present invention (IBF-17) was administered to mice in which the ureter on one side was ligated, and the state of tissue fibrosis was observed. More specifically, mice under deep anesthesia were laparotomized, and two sites of the left ureter were ligated using a nylon thread, and the abdomen was sutured. From 1 day after ligation, IBF-17 was subcutaneously administered daily at 1 or 5 mg/kg twice per day (with an interval of 8 hours) for 9 days. At 10 days after ligation, the kidney was collected and expression of genes regarded as fibrosis markers (Acta2, Col1a1, Col3a1, Ddr2, Tgfb1, Tnc, Trpc6, and Loxl1) was analyzed by qPCR.

[7] = system: rat lung-derived fibroblasts; experiment: Differentiation of fibroblasts into myofibroblasts, α-SMA western blotting; format: cell-based; conditions: TGFβ stimulation 96 hours
Procedure: In this Example, the effect of IBF-17, which is a compound of the present invention, on differentiation of fibroblasts into myofibroblasts was examined. The medium was replaced with a serum-free medium, and rat lung-derived fibroblasts isolated in Example 2 were cultured for 24 hours. After culturing, IBF-17 was added so as to give final concentrations of 2, 20 nM, or 200 nM, and C8 was added so as to give final concentrations of 2, 20, or 200 nM, followed by reaction for 2 hours. After the reaction, recombinant human TGFβ1 was added so as to give a final concentration of 5 ng/mL, and stimulation was carried out for 96 hours to induce differentiation into myofibroblasts. After induction of differentiation, protein was extracted from the cells and western blotting was performed, a band of α-SMA, which is a differentiation marker, was detected, and the band was quantified as a relative band intensity with respect to glyceraldehyde-3-phosphate dehydrogenase (GAPDH), which is a control.
From this Example, differentiation of fibroblasts into myofibroblasts (by […] TGFβ) was evaluated using α-smooth muscle actin as marker.

interstitial pneumonia = conditions: reported July 2022; cited from earlier work
[8] = liver, 1 or 10 mg/kg twice per day

SMILES: O=C(O)C[C@H](NC(=O)CNC(=O)c1cc(O)cc(NC2=NCC(F)CN2)c1)c1cccc(S(F)(F)(F)(F)F)c1 (stereo partly drawn) [IBF-17, (3S)-3-(2-{3-[(5-fluoro-1,4,5,6-tetrahydropyrimidin-2-yl)amino]-5-hydroxybenzamido}acetamido)-3-[3-(pentafluorosulfanyl)phenyl]propanoic acid]
- mRNA expression of Acta2 (qPCR) [1, 8]: tends to be decreased
- mRNA expression of Col1a1 (qPCR) [1, 8]: tends to be decreased
- amount of hydroxyproline in liver tissue ([1]; 1 mg/kg twice per day): showed an effect
- amount of hydroxyproline in liver tissue ([1]; 1 or 10 mg/kg twice per day): decreased the amount of hydroxyproline
- Sirius red-stained area of liver tissue ([1]; both 1 mg/kg and 10 mg/kg twice per day, versus non-administration group, decrease followed the dose): decreased
- amount of hydroxyproline in mouse liver [2]: significantly decreased
- activation of TGFβ (luciferase activity) ([3]; 200 nM): almost completely inhibited
- activation of TGFβ (luciferase activity) ([3]; concentration range of 2 to 200 nM, coculture 18 hours): suppressed activation of TGFβ in a concentration-dependent manner
- hydroxyproline amount of liver tissue (NASH model; any dose (1, 3, and 10 mg/kg) twice per day, versus no administration): decreases in hydroxyproline amount were observed
- mRNA expression of fibrosis markers (Acta2, Col1a1, Timp-1) (qPCR) (NASH model; any of 1, 3, and 10 mg/kg twice per day): uniformly decreased fibrosis markers
- fibrotic area in tissue specimens (Sirius red) (NASH model; any of 1, 3, and 10 mg/kg twice per day, versus non-administration group): reduced the fibrotic area
- mRNA expression of Col1a1 (qPCR) ([4]; lung): significantly decreased
- mRNA expression of Col3a1 (qPCR) ([4]; lung): significantly decreased
- fibrotic area of lung (Masson-trichrome staining) [4]: significantly decreased
- mRNA expression of Col1a1 (qPCR) [5]: clearly decreased
- mRNA expression of Col3a1 (qPCR) [5]: clearly decreased
- mRNA expression of six fibrosis markers (Acta2, Col1a1, Col3a1, Tgfb1, Loxl1, Ddr2) (qPCR) [5]: all of these markers were decreased
- mRNA expression of Acta2 (qPCR) [6]: decreasing tendency
- mRNA expression of Col1a1 (qPCR) [6]: significant decreases
- mRNA expression of Col3a1 (qPCR) [6]: significant decreases
- mRNA expression of Ddr2 (qPCR) [6]: significant decreases
- mRNA expression of Loxl1 (qPCR) [6]: significant decreases
- mRNA expression of Tgfb1 (qPCR) [6]: decreasing tendency
- mRNA expression of Tnc (qPCR) [6]: decreasing tendency
- mRNA expression of Trpc6 (qPCR) [6]: decreasing tendency
- inhibition of differentiation of fibroblasts into myofibroblasts (α-SMA band intensity) ([7]; 2 nM): inhibition of differentiation was observed
- inhibition at 0.02 µM ([7]; Rattus norvegicus, Fibroblast, 20 nM, read-out: inhibition of differentiation of fibroblasts into myofibroblasts (α-SMA band intensity)): ≥ 80%

SMILES: COCCN(CCCCc1ccc2c(n1)NCCC2)CC[C@H](Nc1ncnc2ccccc12)C(=O)O [PLN-74809]
- efficacy in early Phase 2a of a clinical trial (interstitial pneumonia): proven efficacy
